Key:
E. coli SspA homodimer = E. coli SspA homodimer (Escherichia coli, UniProt P0ACA3); type: binding
SEC = target: the molecule itself; test: SEC

With `Nc1nc2c(ncn2[C@@H]2O[C@H](COP(=O)(O)OP(=O)(O)O)[C@@H](OP(=O)(O)OP(=O)(O)O)[C@H]2O)c(=O)[nH]1` [ppGpp] the DRaCALA (E. coli SspA homodimer) was “only very weak binding requiring ppGpp concentrations in the high micromolar range”.

B1: E. coli SspA, wild type (natural protein, UniProt P0ACA3 1-212, looked up)
chain: MAVAANKRSVMTLFSGPTDIYSHQVRIVLAEKGVSFEIEHVEKDNPPQDLIDLNPNQSVPTLVDRELTLWESRIIMEYLDERFPHPPLMPVYPVARGESRLYMHRIEKDWYTLMNTIINGSASEADAARKQLREELLAIAPVFGQKPYFLSDEFSLVDCYLAPLLWRLPQLGIEFSGPGAKELKGYMTRVFERDSFLASLTEAEREMRLGRS
notes: also called wild-type SspA; E. coli SspA homodimer
In the case of B1, the “stoichiometry N” value (SEC) is reported as 2.
